Converted amounts (≈) assume the structure as drawn.
Columns and labels:
Format in all cases: cell-based
[1] = tested on: C. Trachomatics G/ur 1317; assay: Antichlamydia activity, MIC in McCoy cells (inclusion bodies); conditions: C. Trachomatics G/ur 1317; McCoy cells, 36 °C for 40-48 hours; calculated for free base; read-out: minimum inhibitory concentrations (MIC)
Experimental: (§1) The figures in the table show minimum inhibitory concentrations (MIC), (μg/ml), calculated for free base. Minimum inhibitory concentrations (MIC) were determined as follows. […] The cells were trypsinized and suspended in the same culture medium at a cell concentration of 1-2 x 10^5 cells/ml. One ml of the cell suspension was pipetted into flat-bottomed plastic tubes (14 mm in diameter) containing a cover slip (12 mm in diameter). The tubes were incubated in 5 % CO2-air at 36 °C for 20 hours. One-half ml of a chlamydial suspension (ca. 1-4 x 103 inclusion body forming units) was added into each tube, which was then centrifuged at 1500 x g for 60 minutes. The tubes were incubated for 1 hour at 36 °C. […] After further incubation at 36 °C for 40-48 hours, the cells on the cover glasses were stained with the Giemsa's solution. […] The MIC was defined as the lowest drug concentration where there were no inclusion bodies in all the cells on the cover slip.

[2] = tested on: C. Trachomatics G/ur 1448; assay: as above; conditions: C. Trachomatics G/ur 1448; McCoy cells, 36 °C for 40-48 hours; calculated for free base; read-out: minimum inhibitory concentrations (MIC)
Experimental: as §1

[3] = tested on: C. Trachomatics G/ur 1242; assay: as above; conditions: C. Trachomatics G/ur 1242; McCoy cells, 36 °C for 40-48 hours; calculated for free base; read-out: minimum inhibitory concentrations (MIC)
Experimental: as §1

C. Trachomatics G/ur 931 = assay: as above; conditions: C. Trachomatics G/ur 931; McCoy cells, 36 °C for 40-48 hours; calculated for free base; read-out: minimum inhibitory concentrations (MIC)
Experimental: as §1

M. orale CH-19299 = assay: Antimycoplasma activity, twofold agar dilution MIC; conditions: po, 48 h; M. orale CH-19299; Chanock agar, 37 °C for 2 days, anaerobically; calculated for free base; read-out: minimum inhibitory concentrations (MIC)
Experimental: (§2) The figures in the table show minimum inhibitory concentrations (MIC), (μg/ml), calculated for free base. Minimum inhibitory concentrations (MIC) were determined by the twofold agar dilution method. The media used were Chanock broth and agar [PPLD broth and agar (Difco) supplemented with 20 % horse serum and 10 % fresh yeast extract]. A 2-3 day broth culture of organisms was diluted with Chanock broth to a cell density of about 10^6 cells/ml. One loopful (about […]) of the organism dilution was spotted onto 10-ml drug containing Chanock agar in petri dishes using a multiple inoculator ([…] International). […] Incubation was performed anaerobically using the […] anaerobic system (BBL) for M. buccale, M. fermentans, M. hominis, M. orale and M. salivarium, and aerobically for other Mycoplasma spp. The MIC was defined as the lowest compound concentration at which no growth of organism was detected.

M. hyorhinis BST-7 = assay: Antimycoplasma activity, twofold agar dilution MIC; conditions: Mesomycoplasma hyorhinis, BST7, 48 h; M. hyorhinis BST-7; Chanock agar, 37 °C for 2 days, aerobically; calculated for free base; read-out: minimum inhibitory concentrations (MIC)
Experimental: as §2

A. laidlawii PG-8 = assay: Antimycoplasma activity, twofold agar dilution MIC; conditions: Acholeplasma laidlawii, PG8, 48 h; A. laidlawii PG-8; Chanock agar, 37 °C for 2 days, aerobically; calculated for free base; read-out: minimum inhibitory concentrations (MIC)
Experimental: as §2

M. hominis PG-21 = assay: Antimycoplasma activity, twofold agar dilution MIC; conditions: Metamycoplasma hominis, PG21, 48 h; M. hominis PG-21; Chanock agar, 37 °C for 2 days, anaerobically; calculated for free base; read-out: minimum inhibitory concentrations (MIC)
Experimental: as §2

M. fermentans PG-18 = assay: Antimycoplasma activity, twofold agar dilution MIC; conditions: Mycoplasmopsis fermentans, PG18, 48 h; M. fermentans PG-18; Chanock agar, 37 °C for 2 days, anaerobically; calculated for free base; read-out: minimum inhibitory concentrations (MIC)
Experimental: as §2

M. pneumoniae Mac = assay: Antimycoplasma activity, twofold agar dilution MIC; conditions: Mycoplasmoides pneumoniae, 168 h; M. pneumoniae Mac; Chanock agar, 37 °C for 7 days, aerobically; calculated for free base; read-out: minimum inhibitory concentrations (MIC)
Experimental: as §2

M. arginini G-230 = assay: Antimycoplasma activity, twofold agar dilution MIC; conditions: 48 h; M. arginini G-230; Chanock agar, 37 °C for 2 days, aerobically; calculated for free base; read-out: minimum inhibitory concentrations (MIC)
Experimental: as §2

M. salivarium PG-20 = assay: Antimycoplasma activity, twofold agar dilution MIC; conditions: 48 h; M. salivarium PG-20; Chanock agar, 37 °C for 2 days, anaerobically; calculated for free base; read-out: minimum inhibitory concentrations (MIC)
Experimental: as §2

M. buccale CH-20249 = assay: Antimycoplasma activity, twofold agar dilution MIC; conditions: 48 h; M. buccale CH-20249; Chanock agar, 37 °C for 2 days, anaerobically; calculated for free base; read-out: minimum inhibitory concentrations (MIC)
Experimental: as §2

S. epidermidis No. 8 = assay: In vitro antibacterial activity, twofold agar-dilution MIC; conditions: Staphylococcus epidermidis; S. epidermidis No. 8; Mueller-Hinton agar, 20-hour incubation at 37 °C; calculated for free base; read-out: minimum inhibitory concentrations (MIC)
Experimental: (§3) The figures in the table show minimum inhibitory concentrations (MIC) (µg/ml), calculated for free base. […] One loopful of an overnight culture of test organisms in Mueller-Hinton broth was inoculated onto 10 ml drug- containing agar layers in petri dishes. Bacterial inocula contained approximately 10⁶ colonyl-forming units. […] The MIC was defined as the lowest drug concentration which prevented visible bacterial growth.

E. coli NIHJ JC-2 = assay: as above; conditions: Escherichia coli, NIHJJC2; E. coli NIHJ JC-2; Mueller-Hinton agar, 20-hour incubation at 37 °C; calculated for free base; read-out: minimum inhibitory concentrations (MIC)
Experimental: as §3

S. aureus No. 80 = assay: as above; conditions: Staphylococcus aureus; S. aureus No. 80; Mueller-Hinton agar, 20-hour incubation at 37 °C; calculated for free base; read-out: minimum inhibitory concentrations (MIC)
Experimental: as §3

S. aureus 209 JC-1 = assay: as above; conditions: Staphylococcus aureus, 209JC1; S. aureus 209 JC-1; Mueller-Hinton agar, 20-hour incubation at 37 °C; calculated for free base; read-out: minimum inhibitory concentrations (MIC)
Experimental: as §3

S. pyogenes A65 = assay: as above; conditions: Streptococcus pyogenes; S. pyogenes A65; Mueller-Hinton agar, 20-hour incubation at 37 °C; calculated for free base; read-out: minimum inhibitory concentrations (MIC)
Experimental: as §3

E. coli P-5101 = assay: as above; conditions: Escherichia coli, P5101; E. coli P-5101; Mueller-Hinton agar, 20-hour incubation at 37 °C; calculated for free base; read-out: minimum inhibitory concentrations (MIC)
Experimental: as §3

P. aeruginosa 12 = assay: as above; conditions: Pseudomonas aeruginosa; P. aeruginosa 12; Mueller-Hinton agar, 20-hour incubation at 37 °C; calculated for free base; read-out: minimum inhibitory concentrations (MIC)
Experimental: as §3

S. aureus Terajima = assay: as above; conditions: Staphylococcus aureus; S. aureus Terajima; Mueller-Hinton agar, 20-hour incubation at 37 °C; calculated for free base; read-out: minimum inhibitory concentrations (MIC)
Experimental: as §3

S. marcescens S-9 = assay: as above; conditions: Serratia marcescens, S9; S. marcescens S-9; Mueller-Hinton agar, 20-hour incubation at 37 °C; calculated for free base; read-out: minimum inhibitory concentrations (MIC)
Experimental: as §3

C[C@@H]1CN(c2c(F)cc3c(=O)c(C(=O)O)cn(C4CC4)c3c2F)C[C@H](C)N1 [Compound C, 1-cyclopropyl-6,8-difluoro-7-(cis-3,5-dimethyl-1-piperazinyl)-1,4-dihydro-4-oxoquinoline-3-carboxylic acid]
MIC [1]: 0.2 µg/mL (≈ 0.53 µM) | MIC [2]: 0.2 µg/mL (≈ 0.53 µM) | MIC [3]: 0.2 µg/mL (≈ 0.53 µM) | MIC (C. Trachomatics G/ur 931): 0.2 µg/mL (≈ 0.53 µM) | MIC (M. orale CH-19299): 0.78 µg/mL (≈ 2.07 µM) | MIC (M. hyorhinis BST-7): 0.1 µg/mL (≈ 0.265 µM) | MIC (A. laidlawii PG-8): 0.39 µg/mL (≈ 1.03 µM) | MIC (M. hominis PG-21): 0.2 µg/mL (≈ 0.53 µM) | MIC (M. fermentans PG-18): 0.1 µg/mL (≈ 0.265 µM) | MIC (M. pneumoniae Mac): 0.2 µg/mL (≈ 0.53 µM) | MIC (M. arginini G-230): 0.39 µg/mL (≈ 1.03 µM) | MIC (M. salivarium PG-20): 0.78 µg/mL (≈ 2.07 µM) | MIC (M. buccale CH-20249): 0.2 µg/mL (≈ 0.53 µM) | MIC (S. epidermidis No. 8): 0.1 µg/mL (≈ 0.265 µM) | MIC (E. coli NIHJ JC-2): 0.0125 µg/mL (≈ 0.0331 µM) | MIC (S. aureus No. 80): 0.1 µg/mL (≈ 0.265 µM) | MIC (S. aureus 209 JC-1): 0.1 µg/mL (≈ 0.265 µM) | MIC (S. pyogenes A65): 0.78 µg/mL (≈ 2.07 µM) | MIC (E. coli P-5101): 0.0125 µg/mL (≈ 0.0331 µM) | MIC (P. aeruginosa 12): 0.78 µg/mL (≈ 2.07 µM) | MIC (S. aureus Terajima): 0.1 µg/mL (≈ 0.265 µM) | MIC (S. marcescens S-9): 0.2 µg/mL (≈ 0.53 µM)

Reference: EP0319906A2, “Novel quinoline derivatives, processes for preparation thereof and antibacterial agent containing them” (Dainippon Pharmaceutical Co., Ltd., priority 1987, dated 1989)
